How the values were obtained:
[1] = system: AMBEL (Ragweed, Common); test: Postemergence herbicidal evaluation; assay type: in vivo, Ambrosia artemisifolia
Procedure, shortened: (§1)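 Compound is applied as a foliar spray to seedlings about two weeks old, formulated in equal parts acetone and water with 0.5% TWEEN 20 and delivered at 40 psi to give about 0.0156–0.500 kg per hectare. Injury is rated visually 0–9 after four to five weeks.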

[2] = system: CASOB (Sicklepod); test: Postemergence herbicidal evaluation; assay type: in vivo, Cassia obtusifolia
Procedure, shortened: as §1

[3] = system: CHEAL (Lambsquarters, Common); test: Postemergence herbicidal evaluation; assay type: in vivo, Chenopodium album
Procedure, shortened: as §1

[4] = system: IPOHE (Morningglory, Ivyleaf); test: Postemergence herbicidal evaluation; assay type: in vivo, Ipomoea hederacea
Procedure, shortened: as §1

[5] = system: ECHCG (Barnyardgrass); test: Postemergence herbicidal evaluation; assay type: in vivo, Echinochloa crus-galli
Procedure, shortened: as §1

[6] = system: GLXMAW (Soybean, Williams); test: Postemergence herbicidal evaluation; assay type: in vivo, Glycine max, (L.) Merr. cv Williams
Procedure, shortened: as §1

[7] = system: TRZAWR (Wheat, Winter, cv Riband); test: Postemergence herbicidal evaluation; assay type: in vivo, Triticum aestivum
Procedure, shortened: as §1

[8] = system: ABUTH (Velvetleaf); test: Preemergence herbicidal evaluation; assay type: in vivo, Abutilon theophrasti; conditions: rated 4-5 weeks after treatment
Procedure, shortened: (§2)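 Steps: mix seeds into potting soil; plant atop ~1 inch soil; spray compound in aqueous acetone (~0.0156-0.500 kg/ha equivalent); maintain in greenhouse with watering; rate visually 0-9 versus control at 4-5 weeks.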

[9] = system: AMBEL (Ragweed, Common); test: Preemergence herbicidal evaluation; assay type: in vivo, Ambrosia artemisifolia; conditions: rated 4-5 weeks after treatment
Procedure, shortened: as §2

[10] = system: CASOB (Sicklepod); test: Preemergence herbicidal evaluation; assay type: in vivo, Cassia obtusifolia; conditions: rated 4-5 weeks after treatment
Procedure, shortened: as §2

[11] = system: CHEAL (Lambsquarters, Common); test: Preemergence herbicidal evaluation; assay type: in vivo, Chenopodium album; conditions: rated 4-5 weeks after treatment
Procedure, shortened: as §2

[12] = system: IPOHE (Morningglory, Ivyleaf); test: Preemergence herbicidal evaluation; assay type: in vivo, Ipomoea hederacea; conditions: rated 4-5 weeks after treatment
Procedure, shortened: as §2

[13] = system: GLXMAW (Soybean, Williams); test: Preemergence herbicidal evaluation; assay type: in vivo, Glycine max, (L.) Merr. cv Williams; conditions: rated 4-5 weeks after treatment
Procedure, shortened: as §2

[14] = system: ORYSAT (Rice, Tebonnet); test: Preemergence herbicidal evaluation; assay type: in vivo, Oryza sativa, (L.) Tebonnet; conditions: rated 4-5 weeks after treatment
Procedure, shortened: as §2

[15] = system: MOOVA (Monochoria); test: Preemergence weed control under flooded paddy conditions; assay type: in vivo, Monochoria vaginalis; conditions: rated 3-4 weeks after treatment
Procedure, shortened: (§3)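 Flooded-pot preemergence screen with silt loam and seeds in the upper 0.5 cm. Dose about 0.0313 to 0.500 kg/ha, delivered into flood water; visual 0-9 score after 3 to 4 weeks.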

[16] = system: SAGPY (Arrowhead (Pygmaea)); test: as above; assay type: in vivo, Sagittaria pygmaea; conditions: rated 3-4 weeks after treatment
Procedure, shortened: as §3

## CCOC(=O)CN1C(=O)C[S+]([O-])/C1=N/c1cc(-n2c(=O)cc(C(F)(F)F)n(C)c2=O)c(F)cc1Cl (stereo not drawn) [Compound 45, 2-{{2-Chloro-5-[3,6-dihydro-3-methyl-2,6-dioxo-4-(trifluoromethyl)-1(2H)-pyrimidinyl]-4-fluoro-phenyl}imino}-4-oxo-3-thiazolidineacetic acid, ethyl ester, 1-oxide]
[1]; Rate 0.0313 kg/ha
  Postemergence herbicidal rating AMBEL: 4.0
[1]; Rate 0.0625 kg/ha
  Postemergence herbicidal rating AMBEL: 9.0
[2]; Rate 0.0156 kg/ha
  Postemergence herbicidal rating CASOB: 0.0
[2]; Rate 0.0313 kg/ha
  Postemergence herbicidal rating CASOB: 0.0
[2]; Rate 0.0625 kg/ha
  Postemergence herbicidal rating CASOB: 0.0
[3]; Rate 0.0156 kg/ha
  Postemergence herbicidal rating CHEAL: 0.0
[3]; Rate 0.0313 kg/ha
  Postemergence herbicidal rating CHEAL: 5.0
[3]; Rate 0.0625 kg/ha
  Postemergence herbicidal rating CHEAL: 9.0
[4]; Rate 0.0156 kg/ha
  Postemergence herbicidal rating IPOHE: 9.0
[4]; Rate 0.0313 kg/ha
  Postemergence herbicidal rating IPOHE: 9.0
[4]; Rate 0.0625 kg/ha
  Postemergence herbicidal rating IPOHE: 9.0
[5]; Rate 0.0156 kg/ha
  Postemergence herbicidal rating ECHCG: 0.0
[5]; Rate 0.0313 kg/ha
  Postemergence herbicidal rating ECHCG: 0.0
[5]; Rate 0.0625 kg/ha
  Postemergence herbicidal rating ECHCG: 0.0
[6]; Rate 0.0156 kg/ha
  Postemergence herbicidal rating GLXMAW: 5.5
[6]; Rate 0.0313 kg/ha
  Postemergence herbicidal rating GLXMAW: 6.5
[6]; Rate 0.0625 kg/ha
  Postemergence herbicidal rating GLXMAW: 7.0
[7]; Rate 0.0156 kg/ha
  Postemergence herbicidal rating TRZAWR: 4.0
[7]; Rate 0.0313 kg/ha
  Postemergence herbicidal rating TRZAWR: 4.0
[7]; Rate 0.0625 kg/ha
  Postemergence herbicidal rating TRZAWR: 4.5
[8]; rate 0.0156 kg/ha
  Preemergence herbicidal rating ABUTH: 0.0
[8]; rate 0.0313 kg/ha
  Preemergence herbicidal rating ABUTH: 9.0
[8]; rate 0.0625 kg/ha
  Preemergence herbicidal rating ABUTH: 9.0
[8]; rate 0.1250 kg/ha
  Preemergence herbicidal rating ABUTH: 9.0
[8]; rate 0.2500 kg/ha
  Preemergence herbicidal rating ABUTH: 9.0
[9]; rate 0.0156 kg/ha
  Preemergence herbicidal rating AMBEL: 0.0
[9]; rate 0.0313 kg/ha
  Preemergence herbicidal rating AMBEL: 0.0
[9]; rate 0.0625 kg/ha
  Preemergence herbicidal rating AMBEL: 0.0
[9]; rate 0.1250 kg/ha
  Preemergence herbicidal rating AMBEL: 0.0
[9]; rate 0.2500 kg/ha
  Preemergence herbicidal rating AMBEL: 2.0
[10]; rate 0.0156 kg/ha
  Preemergence herbicidal rating CASOB: 0.0
[10]; rate 0.0313 kg/ha
  Preemergence herbicidal rating CASOB: 0.0
[10]; rate 0.0625 kg/ha
  Preemergence herbicidal rating CASOB: 0.0
[10]; rate 0.1250 kg/ha
  Preemergence herbicidal rating CASOB: 0.0
[10]; rate 0.2500 kg/ha
  Preemergence herbicidal rating CASOB: 0.0
[11]; rate 0.0156 kg/ha
  Preemergence herbicidal rating CHEAL: 9.0
[11]; rate 0.0313 kg/ha
  Preemergence herbicidal rating CHEAL: 9.0
[11]; rate 0.0625 kg/ha
  Preemergence herbicidal rating CHEAL: 9.0
[11]; rate 0.1250 kg/ha
  Preemergence herbicidal rating CHEAL: 9.0
[11]; rate 0.2500 kg/ha
  Preemergence herbicidal rating CHEAL: 9.0
[12]; rate 0.0156 kg/ha
  Preemergence herbicidal rating IPOHE: 0.0
[12]; rate 0.0313 kg/ha
  Preemergence herbicidal rating IPOHE: 0.0
[12]; rate 0.0625 kg/ha
  Preemergence herbicidal rating IPOHE: 0.0
[12]; rate 0.1250 kg/ha
  Preemergence herbicidal rating IPOHE: 0.0
[12]; rate 0.2500 kg/ha
  Preemergence herbicidal rating IPOHE: 1.0
[13]; rate 0.0156 kg/ha
  Preemergence herbicidal rating GLXMAW: 0.0
[13]; rate 0.0313 kg/ha
  Preemergence herbicidal rating GLXMAW: 0.0
[13]; rate 0.0625 kg/ha
  Preemergence herbicidal rating GLXMAW: 0.0
[13]; rate 0.1250 kg/ha
  Preemergence herbicidal rating GLXMAW: 0.0
[13]; rate 0.2500 kg/ha
  Preemergence herbicidal rating GLXMAW: 3.0
[14]; rate 0.0156 kg/ha
  Preemergence herbicidal rating ORYSAT: 0.0
[14]; rate 0.0313 kg/ha
  Preemergence herbicidal rating ORYSAT: 0.0
[14]; rate 0.0625 kg/ha
  Preemergence herbicidal rating ORYSAT: 0.0
[14]; rate 0.1250 kg/ha
  Preemergence herbicidal rating ORYSAT: 0.0
[14]; rate 0.2500 kg/ha
  Preemergence herbicidal rating ORYSAT: 0.0
[15]; 0.0313 kg/ha
  Herbicidal rating MOOVA: 7.0
[15]; 0.0625 kg/ha
  Herbicidal rating MOOVA: 7.0
[15]; 0.1250 kg/ha
  Herbicidal rating MOOVA: 9.0
[15]; 0.2500 kg/ha
  Herbicidal rating MOOVA: 9.0
[16]; 0.0313 kg/ha
  Herbicidal rating SAGPY: 0.0
[16]; 0.0625 kg/ha
  Herbicidal rating SAGPY: 0.0
[16]; 0.1250 kg/ha
  Herbicidal rating SAGPY: 0.0
[16]; 0.2500 kg/ha
  Herbicidal rating SAGPY: 4.0

## CCOC(=O)CN1C(=O)CSC1=Nc1cc(N2C(=O)C3=C(CCCC3)C2=O)c(F)cc1Cl [Compound 47, Ethyl 2-{[2-chloro-5-(1-cyclohexene-1,2-dicarboximido)-4-fluorophenyl]imino}-4-oxo-3-thiazolidineacetate]
[1]; Rate 0.0156 kg/ha
  Postemergence herbicidal rating AMBEL: 3.0
[1]; Rate 0.0313 kg/ha
  Postemergence herbicidal rating AMBEL: 9.0
[1]; Rate 0.0625 kg/ha
  Postemergence herbicidal rating AMBEL: 9.0
[2]; Rate 0.0156 kg/ha
  Postemergence herbicidal rating CASOB: 0.0
[2]; Rate 0.0313 kg/ha
  Postemergence herbicidal rating CASOB: 2.0
[2]; Rate 0.0625 kg/ha
  Postemergence herbicidal rating CASOB: 2.0
[3]; Rate 0.0156 kg/ha
  Postemergence herbicidal rating CHEAL: 3.0
[3]; Rate 0.0313 kg/ha
  Postemergence herbicidal rating CHEAL: 4.0
[4]; Rate 0.0156 kg/ha
  Postemergence herbicidal rating IPOHE: 9.0
[4]; Rate 0.0313 kg/ha
  Postemergence herbicidal rating IPOHE: 9.0
[4]; Rate 0.0625 kg/ha
  Postemergence herbicidal rating IPOHE: 9.0
[5]; Rate 0.0156 kg/ha
  Postemergence herbicidal rating ECHCG: 0.0
[5]; Rate 0.0313 kg/ha
  Postemergence herbicidal rating ECHCG: 0.0
[5]; Rate 0.0625 kg/ha
  Postemergence herbicidal rating ECHCG: 0.0
[6]; Rate 0.0156 kg/ha
  Postemergence herbicidal rating GLXMAW: 5.5
[6]; Rate 0.0313 kg/ha
  Postemergence herbicidal rating GLXMAW: 7.0
[6]; Rate 0.0625 kg/ha
  Postemergence herbicidal rating GLXMAW: 7.5
[7]; Rate 0.0156 kg/ha
  Postemergence herbicidal rating TRZAWR: 2.5
[7]; Rate 0.0313 kg/ha
  Postemergence herbicidal rating TRZAWR: 3.5
[7]; Rate 0.0625 kg/ha
  Postemergence herbicidal rating TRZAWR: 4.5
[8]; rate 0.0156 kg/ha
  Preemergence herbicidal rating ABUTH: 4.0
[8]; rate 0.0313 kg/ha
  Preemergence herbicidal rating ABUTH: 4.0
[8]; rate 0.0625 kg/ha
  Preemergence herbicidal rating ABUTH: 9.0
[8]; rate 0.1250 kg/ha
  Preemergence herbicidal rating ABUTH: 9.0
[8]; rate 0.2500 kg/ha
  Preemergence herbicidal rating ABUTH: 9.0
[9]; rate 0.0156 kg/ha
  Preemergence herbicidal rating AMBEL: 0.0
[9]; rate 0.0313 kg/ha
  Preemergence herbicidal rating AMBEL: 0.0
[9]; rate 0.0625 kg/ha
  Preemergence herbicidal rating AMBEL: 0.0
[9]; rate 0.1250 kg/ha
  Preemergence herbicidal rating AMBEL: 0.0
[9]; rate 0.2500 kg/ha
  Preemergence herbicidal rating AMBEL: 0.0
[10]; rate 0.0156 kg/ha
  Preemergence herbicidal rating CASOB: 0.0
[10]; rate 0.0313 kg/ha
  Preemergence herbicidal rating CASOB: 0.0
[10]; rate 0.0625 kg/ha
  Preemergence herbicidal rating CASOB: 0.0
[10]; rate 0.1250 kg/ha
  Preemergence herbicidal rating CASOB: 0.0
[10]; rate 0.2500 kg/ha
  Preemergence herbicidal rating CASOB: 0.0
[11]; rate 0.0156 kg/ha
  Preemergence herbicidal rating CHEAL: 9.0
[11]; rate 0.0313 kg/ha
  Preemergence herbicidal rating CHEAL: 9.0
[11]; rate 0.0625 kg/ha
  Preemergence herbicidal rating CHEAL: 9.0
[11]; rate 0.1250 kg/ha
  Preemergence herbicidal rating CHEAL: 9.0
[11]; rate 0.2500 kg/ha
  Preemergence herbicidal rating CHEAL: 9.0
[12]; rate 0.0156 kg/ha
  Preemergence herbicidal rating IPOHE: 0.0
[12]; rate 0.0313 kg/ha
  Preemergence herbicidal rating IPOHE: 0.0
[12]; rate 0.0625 kg/ha
  Preemergence herbicidal rating IPOHE: 0.0
[12]; rate 0.1250 kg/ha
  Preemergence herbicidal rating IPOHE: 0.0
[12]; rate 0.2500 kg/ha
  Preemergence herbicidal rating IPOHE: 9.0
[13]; rate 0.0156 kg/ha
  Preemergence herbicidal rating GLXMAW: 0.0
[13]; rate 0.0313 kg/ha
  Preemergence herbicidal rating GLXMAW: 0.0
[13]; rate 0.0625 kg/ha
  Preemergence herbicidal rating GLXMAW: 0.0
[13]; rate 0.1250 kg/ha
  Preemergence herbicidal rating GLXMAW: 0.0
[13]; rate 0.2500 kg/ha
  Preemergence herbicidal rating GLXMAW: 0.0
[14]; rate 0.0156 kg/ha
  Preemergence herbicidal rating ORYSAT: 0.0
[14]; rate 0.0313 kg/ha
  Preemergence herbicidal rating ORYSAT: 0.0
[14]; rate 0.0625 kg/ha
  Preemergence herbicidal rating ORYSAT: 0.0
[14]; rate 0.1250 kg/ha
  Preemergence herbicidal rating ORYSAT: 0.0
[14]; rate 0.2500 kg/ha
  Preemergence herbicidal rating ORYSAT: 0.0
[15]; 0.0313 kg/ha
  Herbicidal rating MOOVA: 5.0
[15]; 0.0625 kg/ha
  Herbicidal rating MOOVA: 6.0
[15]; 0.1250 kg/ha
  Herbicidal rating MOOVA: 9.0
[15]; 0.2500 kg/ha
  Herbicidal rating MOOVA: 9.0
[16]; 0.0313 kg/ha
  Herbicidal rating SAGPY: 0.0
[16]; 0.0625 kg/ha
  Herbicidal rating SAGPY: 0.0
[16]; 0.1250 kg/ha
  Herbicidal rating SAGPY: 4.0
[16]; 0.2500 kg/ha
  Herbicidal rating SAGPY: 7.0

Source: patent US20020137929A1, “1 - (3-heterocyclylphenyl) isothiourea, -isourea, -guanidine and -amidine herbicidal agents” (Intellectual Property Department, BASF Aktiengesellschaft, priority 1998, published 2002)
